Legend:
[1] = molecular target: T1, CETP (cholesteryl ester transfer protein) (Homo sapiens, UniProt P11597); experiment: CETP inhibitory activity, IC50 in buffer; assay type: biochemical
T1 sequence (P11597 18-493): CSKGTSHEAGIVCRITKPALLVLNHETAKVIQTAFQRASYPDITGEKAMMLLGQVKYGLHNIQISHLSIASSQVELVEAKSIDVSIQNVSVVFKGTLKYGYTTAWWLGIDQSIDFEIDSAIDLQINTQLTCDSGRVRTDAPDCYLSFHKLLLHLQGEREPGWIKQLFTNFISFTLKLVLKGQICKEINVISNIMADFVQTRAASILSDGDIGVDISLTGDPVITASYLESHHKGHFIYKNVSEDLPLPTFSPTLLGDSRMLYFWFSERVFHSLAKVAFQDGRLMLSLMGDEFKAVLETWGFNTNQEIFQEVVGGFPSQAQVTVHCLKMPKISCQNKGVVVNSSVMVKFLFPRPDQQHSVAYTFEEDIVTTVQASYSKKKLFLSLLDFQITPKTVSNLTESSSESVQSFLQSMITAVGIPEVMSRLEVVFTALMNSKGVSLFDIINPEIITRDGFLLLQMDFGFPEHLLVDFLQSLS

[2] = molecular target: T1, CETP (cholesteryl ester transfer protein); experiment: In vitro CETP activity assay in human plasma; assay type: biochemical; parameters: tissue New Drug Development Research Center, Inc; host or cells: human EDTA plasma from healthy men
Description: (1) Preparation of Human Pro-Apolipoprotein Al (pro-apoAl)
The cDNA of human pro-apoAl (NCBI accession number: NM_000039) is cloned from human liver Quick-Clone™ cDNA (Clontech, Calif.) and inserted to a pET28a vector (Novagen, Germany) for bacterial expression. Expressed protein as a fusion protein with 6×His-tag at N-terminus in BL-21 Gold (DE3) (Strategene, Calif.) is purified using HiTrap Chelating (GE Healthcare, Conn.).
(2) Preparation of Donor Microemulsion
Pro-apoAl containing microemulsion as a donor particle is prepared following previous reports (J. Biol. Chem., 280:14918-22). Glyceryl trioleate (62.5 ng, Sigma, Mo.), 3-sn-phosphatidylcholine (583 ng, Wako Pure Chemical Industries, Japan), and cholesteryl BODIPY® FL C12 (250 ng, Invitrogen, Calif.) are dissolved in 1 mL of chloroform. The solution is evaporated, then residual solvent is removed in vacuum for more than 1 hr. The dried lipid mixture is dissolved in 500 μL of the assay buffer (50 mM Tris-HCl (pH7.4) containing 150 mM NaCl and 2 mM EDTA) and sonicated at 50° C. with a microtip (MICROSON™ ULTRASONIC CELL DISRUPTOR, Misonix, Farmingdale, N.Y.) at output power 006 for 2 min. After sonication, the solution is cooled to 40° C., added to 100 μg of human pro-apoAl, and sonicated at output power 004 for 5 min at 40° C. The solution, BODIPY-CE microemulsion as a donor molecule is stored at 4° C. after filtration through a 0.45 μm PVDF filter.
(3) In Vitro CETP Activity Assay in Human Plasma
Human EDTA plasma samples from healthy men are purchased from New Drug Development Research Center, Inc. Donor solution is prepared by a dilution of donor microemulsion with assay buffer. Human plasma (50 μL), assay buffer (35 μL) and test compound dissolved in dimethylsulfoxide (1 μL) are added to each well of 96 well half area black flat bottom plate. The reaction is started by the addition of donor solution (14 μL) into each well. Fluorescence intensities are measured every 30 min at 37° C. with excitation wave length of 485 nm and emission wavelength of 535 nm. The CETP activity (Fl/min) is defined as the changes of fluorescence intensity from 30 to 90 min.

Structure (SMILES) | IC50 [1] | IC50 [2]
CCOC[C@H]1CCCN1c1nc2cc(F)ccc2cc1CN(Cc1cc(C(F)(F)F)cc(C(F)(F)F)c1)c1nnn(C)n1 [Example 3-5] | 0.12 µM | 0.11 µM
CCC(CC)[C@H]1CCCN1c1nc2cc(F)c(F)cc2cc1CN(Cc1cc(C(F)(F)F)cc(C(F)(F)F)c1)c1nnn(C)n1 [Example 3-4] | 0.06 µM | 0.062 µM
CCN(CC1CCCC1)c1nc2cc(F)c(F)cc2cc1CN(Cc1cc(C(F)(F)F)cc(C(F)(F)F)c1)c1nnn(C)n1 [Example 2-8] | 0.04 µM | 0.024 µM
CCN(CC1CCCC1)c1nc2cc(F)cc(F)c2cc1CN(Cc1cc(C(F)(F)F)cc(C(F)(F)F)c1)c1ncc(N2CCOCC2)cn1 [Example 13-4] | 0.0058 µM | 0.033 µM
CCOC(=O)C[C@H]1CC[C@H](CN(CC)c2nc3ccccc3cc2CN(Cc2cc(C(F)(F)F)cc(C(F)(F)F)c2)c2nnn(C)n2)CC1 [Example 2-17] | 0.25 µM | 0.22 µM
CCN(CC1CCOCC1)c1nc2cc(F)c(F)cc2cc1CN(Cc1cc(C(F)(F)F)cc(C(F)(F)F)c1)c1nnn(C)n1 [Example 2-22] | 0.16 µM | 0.03 µM
Cn1nnc(N(Cc2cc(C(F)(F)F)cc(C(F)(F)F)c2)Cc2cc3cc(F)c(F)cc3nc2N2CCC[C@@H]2[C@H]2CC[C@H](CC(=O)O)CC2)n1 [Example 28, trans-(4-{(R)-1-[3-({N-[3,5-bis(trifluoromethyl)benzyl]-N-(2-methyl-2H-tetrazol-5-yl)amino}methyl)-6,7-difluoroquinolin-2-yl]pyrrolidin-2-yl}cyclohexyl)acetic acid] | 0.025 µM | 0.039 µM
CCN(CC1CCCC1)c1nc2cc(F)c(F)c(F)c2cc1CN(Cc1cc(C(F)(F)F)cc(C(F)(F)F)c1)c1nnn(C)n1 [Example 2-10] | 0.036 µM | 0.037 µM
Cn1nnc(N(Cc2cc(C(F)(F)F)cc(C(F)(F)F)c2)Cc2cc3cc(F)c(F)cc3nc2N2CCC[C@@H]2[C@H]2CC[C@H](C(=O)O)CC2)n1 [Example 21, trans-4-{(R)-1-[3-({N-[3,5-bis(trifluoromethyl)benzyl]-N-(2-methyl-2H-tetrazol-5-yl)amino}methyl)-6,7-difluoroquinolin-2-yl]pyrrolidin-2-yl}cyclohexanecarboxylic acid] | 0.021 µM | 0.045 µM
Cn1nnc(N(Cc2cc(C(F)(F)F)cc(C(F)(F)F)c2)Cc2cc3ccc(F)cc3nc2N2CCCC2C2CCCCC2)n1 (stereo not shown) [Example 3-2] | 0.039 µM | 0.043 µM
CCN(CC1CCCC1)c1nc2ccccc2cc1CN(Cc1cc(C(F)(F)F)cc(C(F)(F)F)c1)c1nnn(C)n1 [Example 1, N-[(3-{N′-[3,5-bis(trifluoromethyl)benzyl]-N′-(2-methyl-2H-tetrazol-5-yl)amino}methyl)quinolin-2-yl]-N-(cyclopentylmethyl)ethylamine] | 0.16 µM | 0.26 µM

Next, values leading:

IC50 [1] | IC50 [2] | Structure (SMILES)
0.054 µM | 0.039 µM | CCN(CC1CCCC1)c1nc2cc(C#N)ccc2cc1CN(Cc1cc(C(F)(F)F)cc(C(F)(F)F)c1)c1nnn(C)n1 [Example 6, 3-({N-[3,5-bis(trifluoromethyl)benzyl]-N-(2-methyl-2H-tetrazol-5-yl)amino}methyl)-2-[N′-(cyclopentylmethyl)-N′-ethylamino]quinoline-7-carbonitrile]
0.028 µM | 0.092 µM | CCN(CC1CCCC1)c1nc2cc(C)ccc2cc1CN(Cc1cc(C(F)(F)F)cc(C(F)(F)F)c1)c1nnn(C)n1 [Example 2-6]
0.12 µM | 0.094 µM | CCN(CC1CCCCC1)c1nc2ccc(F)cc2cc1CN(Cc1cc(C(F)(F)F)cc(C(F)(F)F)c1)c1nnn(C)n1 [Example 2-12]
0.032 µM | 0.082 µM | CCN(CC1CCCCC1)c1nc2cc(F)ccc2cc1CN(Cc1cc(C(F)(F)F)cc(C(F)(F)F)c1)c1nnn(C)n1 [Example 2-13]
0.043 µM | 0.062 µM | CCN(CC1CCCCC1)c1nc2cc(F)c(F)cc2cc1CN(Cc1cc(C(F)(F)F)cc(C(F)(F)F)c1)c1nnn(C)n1 [Example 2-15]
0.044 µM | 0.075 µM | CCN(CC1CCCC1)c1nc2cc(OC)ccc2cc1CN(Cc1cc(C(F)(F)F)cc(C(F)(F)F)c1)c1nnn(C)n1 [Example 2-7]

— patent US8232403B2, “Bicyclic derivatives as CETP inhibitors” (Novartis AG, priority 2006, dated 2012)
